For the assay, the system named is per1 gene expression. The experiment in a line: per1 gene expression activity, per1-luciferase reporter plasmid in transfected keratinocytes. It is filed as cell-based, human. Particulars: NHEK, 16 hours incubation, luminescence. As to the method: Normal human epidermal keratinocytes (NHEK) were diluted in EpiLife Media MEP1500CA with supplement S001-5 added (Gibco, Cascade Biologics, Invitrogen) to form a concentration of 3×10^4 and plated onto a black walled 96 well microtiter plate by adding 100 μl in each well. The plate was incubated for 3 hours at 37° C. in 5% CO2. The media was removed and remaining adhered cells rinsed with EpiLife Media MEP1500CA, supplement free. A plasmid solution was prepared by diluting Tris-EDTA pH 8.0 buffer with plasmid pGL4.11 (DNA 2.0, Carlsbad, Calif.) to form a 1 mg/ml solution. This plasmid contained a per1 gene sequence and a luciferase reporter gene sequence. A transfection mixture was prepared by diluting EpiLife Media MEP1500CA, supplement free, to form a solution with 0.31 μg/ml of plasmid (obtained by adding appropriate amount of plasmid solution prepared above), 1.28% Plus™ Reagent (Catalog No. 11514-015, Invitrogen, Carlsbad, Calif.), and 3.22% Lipofectamine™ Transfection Reagent (Catalog No. 18324-012, Invitrogen, Carlsbad, Calif.). Transfection mixture, […] to each well and the plate incubated for 4 hours at 37° C. in 5% CO2. Then 80 μl of EpiLife Media MEP1500CA with supplement S001-5 was added to the well containing the control (media alone), the transfection mixture control (transfection mixture without any active ingredient). Test wells and transfection control wells. To the test wells 80 μl of test material solution (test material diluted in EpiLife Media MEP1500CA with supplement S001-5) was added. The wells were incubated for 16 hours at 37° C. in 5% CO2. Immediately prior to reading, Bright-Glo™ (Pro-Mega, Madison Wis.) was added to each well plate in the same volume as is currently in the well (e.g. a 1:1 dilution). Luminescence was measured in an LMax™ Microplate Luminometer (Molecular Devices, Sunnyvale, Calif.).

The record followed here is patent US9833393B2, “Method and compositions for treating skin” (ELC Management LLC, priority 2015, dated 2017).

As to alpha bisabolol, the “increase in per1” value turned out to be 0% (0.01% concentration), 0% (0.05% concentration) and 0% (0.1% concentration).
For the compound `COc1ccc2[nH]cc(CCNC(C)=O)c2c1` [melatonin], the “increase in per1” value (100 uM concentration) is 39.2%.
